Series [1] is described as follows: Behaviour in 1 mg/ml stock solution. Format: physicochemical. Details: key: b: precipitated in 1 mg/ml stock solution. Particulars: no IC50 given.
The subject of series [2] is Factor Xa neutralization by ATIII/heparin complexes. The series is described as follows: Chromostrate heparin anti-Factor Xa assay (heparin neutralization). Format: biochemical. Particulars: absorbance at 405 nm.

Consider one substance from patent US20060148714A1, “Therapeutic peptide-based constructs” (priority 1999, published 2006).

Where no end group is shown, it is not given here. [ ]: non-standard residue; d: D form. The star is where a group is joined. Acetyl(2-naphthyl) = O=C(Cc1ccc2ccccc2c1)*

Regarding “2-naphthylacetyl-k-l-f-r-(naph-a)-q-a-k ({Acetyl(2-naphthyl)}-[dK][dL][dF][dR][dNal][dQ][dA][dK]; not fully specified; printed as 2-naphthylacetyl-k-l-f-r-(naph-a)-q-a-k) [XMP.666]”, the “precipitated in 1 mg/ml stock solution” value in series [1] is reported as “b”. Also, in series [2] (Assay A), the “Assay A: percent heparin neutralization relative to protamine (100%)” value came out at 39%. Moreover, the “Assay B: percent heparin neutralization relative to protamine (100%)” value in series [2] (Assay B) is recorded as 18%.
